Results on seven molecules are retold here after US11717557B2, “Use of PRG4 as an anti-inflammatory agent” (Lubris LLC, priority 2015, dated 2023).

In assay [1] the target is T1, CD44 (Homo sapiens, UniProt P16070).
T1 construct: purchased R & D systems
Nature of the assay: CD44 binding of sialidase-A / O-glycosidase digested rhPRG4, direct ELISA. To be noted: coating 30 μg/mL; digestion 16 hours at 37° C. As to the method:
rhPRG4 was digested using sialidase A (Prozyme, USA), O-glycosidase (New England Biolabs, USA) or a combination of sialidase A and O-glycosidase for 16 hours at 37° C. In the sialidase A digestion, 12 μL of the enzyme (1 U/200 μL) was added to rhPRG4 in a total reaction volume of 180 μL and a rhPRG4 final concentration of 300 μg/mL. In the O-glycosidase digestion, 4.8 μL of the enzyme (40 million units/mL) was added to rhPRG4 in a total reaction volume of 180 μL and a rhPRG4 final concentration of 300 μg/mL under non-denaturing conditions. In the sialidase-A and O-glycosidase digestion, the enzymes were used in volumes identical to the ones stated above and incubated with rhPRG4 in a total reaction volume and final rhPRG4 concentration as stated above. The effect of sialidase-A and O-glycosidase digestions on rhPRG4 apparent molecular weight was determined by SDS-PAGE using 4-12% Bis-Tris gel (NuPage, life technologies, USA). A total of 20 μL of rhPRG4 or enzyme-digested rhPRG4 was run under reducing conditions ([…] for 60 min) followed by staining using Gelcode Blue Stain (Thermo Scientific, USA). Binding of enzymatically digested rhPRG4 to CD44 was compared to undigested rhPRG4 using the direct ELISA approach described above and using an rhPRG4 coating concentration of 30 μg/mL. Data represents the average of 4 independent experiments, each with triplicate wells per group.

Assay [2] addresses T2, CD44 IgG1Fc (Homo sapiens, UniProt P16070).
T2 construct: purchased R & D systems
Nature of the assay: Direct ELISA: binding of coated macromolecules to CD44-IgG1Fc versus IgG1Fc. To be noted: wells coated at 400 μg/mL; CD44-IgG1Fc or IgG1Fc 1 μg/mL; p<0.001 where significant. As to the method:
High-binding microtiter plates (Corning, Sigma Aldrich, USA) were coated with rhPRG4 (Mr≅240 KDa), high molecular weight HA (HMW HA; Mr≈1,500 KDa) (R & D System, USA), medium molecular weight HA (MMW HA; Mr≈300 KDa) (R & D System) and vitronectin (Mr≅75 KDa) (Sigma Aldrich) at 400 μg/mL in PBS buffer (100 μL per well) overnight at 4° C. rhPRG4 is a full-length product produced by CHO-M cells (Lubris, Framingham, Mass., USA). Following washing with PBS+0.1% Tween 20, wells were blocked with 2% bovine serum albumin (BSA; 300 μL per well) for at least 2 hours at room temperature. CD44-IgG1Fc (R & D systems) or IgG1Fc (R & D systems), each at 1 μg/mL (100 μl per well), were added to the plate and incubated for 60 min at room temperature. Following washing with PBS+0.1% tween 20, anti-IgG1Fc-HRP (Sigma Aldrich) was added at 1:10,000 dilution (100 μL per well) and incubated for 60 min at room temp. Following washing with PBS+0.1% tween 20, the assay was developed using 1-step Turbo TMB ELISA reagent (ThermoScientific, USA) and absorbance was measured at 450 nm. The data represents an average of 4 independent assays, each with triplicate wells per group.

The target in assay [3] is T2, CD44 IgG1Fc. As to the kind of experiment: Competition between rhPRG4 and HA on binding to CD44, ELISA. To be noted: rhPRG4 5 μg/mL. The method, then: To evaluate the competition between rhPRG4 and either HMW HA or MMW HA on binding to CD44, microtiter plates were coated with either CD44 IgG1Fc or IgG1Fc at 1 μg/mL (100 μL per well) overnight at 4° C. Subsequently, wells were washed with PBS+0.1% tween 20 and wells were blocked using 2% BSA (300 μL per well) for at least 2 hours at room temperature. […] Following washing with PBS+0.1% tween 20, lubricin-specific monoclonal antibody (Mab 9G3) was added at 1:1,000 (100 μL per well) and incubated for 60 min at room temp. Following washing with PBS+0.1% tween 20, goat anti-mouse IgG-HRP (Thermo Scientific) at 1:1,000 dilution was added (100 μL per well) and incubated for 60 min at room temp. The assay was developed as described above. The absorbance values in the IgG1Fc wells were subtracted from the absorbance values in the CD44-IgG1Fc wells and the corrected absorbance values in the rhPRG4+HA groups were normalized to the absorbance values of the rhPRG4 group and data was expressed as percentage binding to CD44. The data represents an average of 4 independent assays, each with triplicate wells per group.
In general terms: An ELISA detects its analyte on a solid surface through an enzyme-linked reagent.

The subject of assay [4] is Rheumatoid arthritis fibroblast-like synoviocytes (RA-FLS). As to the kind of experiment: Cytokine-induced RA-FLS proliferation (MTS). Format: cell-based. To be noted: 48 hours, p<0.05. The method, then:
Rheumatoid arthritis fibroblast-like synoviocytes (RA-FLS; Cell Applications, USA) between 3rd and 6th passages were used to conduct these experiments. In sterile 96 well plates, RA-FLS (5,000 cells per well in 80 μL) were cultured in DMEM supplemented with 1% FBS and 1 mM pyruvate and stimulated with recombinant human interleukin-1 beta (IL-1β; R & D systems) at 20 ng/mL or tumor necrosis factor alpha (TNF-α; R & D systems) at 5 ng/mL for 48 hours at 37° C. in the absence or presence of rhPRG4 or HMW HA at a final concentration of 20, 40 or 80 μg/mL. The total volume in each well was 200 μL. Cell proliferation, an indication of inflammation, was determined using the CellTiter 96 AQueous one solution cell proliferation assay (MTS; Promega, USA) and the 490 nm absorbance was determined. Data is presented as the number of fold change in 490 nm absorbance compared to untreated control RA-FLS. The data represents the average of 3 independent experiments with at least triplicate wells per treatment. To evaluate the contribution of CD44 to the effect of rhPRG4 or HMW HA, RA-FLS were stimulated with IL-1β or TNF-α as described above. Treatment with rhPRG4 or HMW HA was conducted to a final concentration of 80 μg/mL in the absence or presence of IM7 (Abcam, USA), a CD44 neutralizing antibody that recognizes a conserved epitope across all CD44 isoforms (Samson et al., Exp Eye Res, 2014; 127C:14-19), at a final dilution of 1:200. The total volume in each well was 200 μl. Cell proliferation across the experimental groups was determined as described above and data is presented as the number of fold change in 490 nm absorbance compared to untreated control RA-FLS. The data represents the average of 3 independent experiments with at least triplicate wells per treatment.

Assay [5] concerns NFκB nuclear translocation in RA-FLS. As to the kind of experiment: NFκB nuclear translocation after TNF-α stimulation of RA-FLS. Format: cell-based. To be noted: TNF-α 5 ng/mL; rhPRG4 200 μg/mL or MG 132 3 μM; 24 hours; p<0.001. The method, then: RA-FLS (400,000 cells/well) were cultured and stimulated with TNF-α (5 ng/mL) and treated with rhPRG4 (200 μg/mL) or a commercially available NFκB translocation inhibitor MG 132 (3 μM; Tocris Bioscience) for 24 hours in serum free media. Cells were harvested and nuclear extraction was performed using a commercially available kit (Thermo scientific). Total protein was measured using a micro bicinchonic acid (BCA) kit (Thermo scientific) and 3 μg of nuclear extract of each experimental group were used. The p50 subunit of NFκB was detected in the nuclear extract using a commercially available NFκB DNA binding assay kit (Abcam). Data is presented as the number of fold change in NFκB nuclear levels compared to untreated control. To evaluate whether inhibition of NFκB translocation by rhPRG4 is CD44 dependent, the above experiment was repeated in the presence or absence of IM7 CD44 antibody (1:1,000 dilution). Data represents the average of 3 independent experiments with at least triplicate wells per treatment.

In assay [6] the test system is citrated whole human blood. As to the kind of experiment: LPS challenge, inflammatory cytokines in whole blood (Biochip Array). Format: cell-based. To be noted: LPS 10 μg/mL, versus saline. The text has this: Lipopolysaccharides (LPS) are found in the outer membrane of Gram-negative bacteria and elicit strong immune inflammatory responses in animals. The effect of LPS challenge on the production of inflammatory cytokines was studied in citrated whole human blood using Biochip Array technology to profile the generation of various cytokines and the modulation of their production. The generation of IL2, IL4, IL6, IL8, IL10, VEGF, IFNg, TNFa, IL1a, IL1b, MCP1 and EGF was studied in citrated whole blood samples supplemented with saline (1-10 ratio) and LPS at 10 μg/mL in samples incubated for 60 minutes at 37° C. These mixtures were centrifuged and the supernatant plasma was analyzed for the […] inflammatory biomarkers using a high sensitivity cytokine array on a Randox Invesitigator Biochip reader. These studies were run in duplicate and tabulated in the form of a table and a figure. As shown in FIGS. 8A-B, supplementation of lipopolysaccharide in a 1:10 dilution in whole blood results in an increase in production of the inflammatory cytokines IL-4, IL-6, IL-8, IL-10, VEGF, TNF-α, IL1-β, and MCP-1 under the specified conditions. No changes in IL2, IFNg, and IL1b were noted.

Residues, ends and D or L forms follow the SMILES beside them. *: point of attachment. Cbz = O=C(OCc1ccccc1)*

With “sialidase-A digested rhPRG4: rhPRG4 digested using sialidase A for 16 hours at 37° C.”, in assay [1], the “percentage binding to CD44 compared to untreated control (undigested rhPRG4)” value (“percentage binding to CD44” below) is given as “significant increase”.

Turning to hyaluronic acid [HMW HA], the “450 nm absorbance in the CD44-IgG1Fc group versus the IgG1Fc group” value in assay [2] is on record as “significantly higher”. Moreover, in assay [3], the “reduction of rhPRG4 binding to CD44 by an excess of HA” value is on record as “approximately 50%”. Moreover, in assay [3] (HA at 0.05, 0.25, 1, p<0.05), the “effect of HA on rhPRG4's binding to CD44” value is given as “significantly reduced”. In addition, in assay [4] (IL-1β 20 ng/mL, treatment 40 and 80 μg/mL), the “RA-FLS proliferation with IL-1β stimulation” value is given as “significantly suppressed”. Further, the “RA-FLS proliferation with TNF-α stimulation” value in assay [4] (TNF-α 5 ng/mL, treatment 20, 40 and 80 μg/mL) is recorded as “did not result in suppressing”.

“sialidase-A and O-glycosidase-digested rhPRG4: rhPRG4 digested using a combination of sialidase A and O-glycosidase”: the “percentage binding to CD44” value in assay [1] was “significantly higher”.

For the molecule “O-glycosidase digested rhPRG4: rhPRG4 digested using O-glycosidase for 16 hours at 37° C.”, the “percentage binding to CD44” value in assay [1] was “significant increase”.

Regarding `CC(C)C[C@@H](C=O)NC(=O)[C@H](CC(C)C)NC(=O)[C@H](CC(C)C)NC(=O)OCc1ccccc1` [MG132, reference compound] (Cbz-Leu-Leu-Leu-aldehyde), the “NFκB nuclear translocation compared to TNF-α-treated RA-FLS” value in assay [5] is listed as “significantly reduced”.

On to “vitronectin: vitronectin, Mr≅75 KDa (Sigma Aldrich), shares sequence homology with lubricin”, for which, in assay [2], the “450 nm absorbance in the CD44-IgG1Fc group versus the IgG1Fc group” value was “no significant difference”.

In the case of lipopolysaccharide, the “production of IL-4, IL-6, IL-8, IL-10, VEGF, TNF-α, IL1-β and MCP-1” value in assay [6] (1:10 dilution in whole blood, 60 minutes at 37° C.) was “increase”. In assay [6] (60 minutes at 37° C.), the “IL2, IFNg and IL1b” value was “No changes”. Further, the “percent changes in IL6, IL8, VEGF and TNFa” value in assay [6] (60 minutes) is recorded as “pronounced increase”.
